Where only a bound is given, the exact number is not on record here.

Series [1] deals with HeLa. Nature of the series: Cytotoxicity against human HeLa cells assessed as growth inhibition. The class given is functional.
Series [2] has as its system L1210. The series can be described thus: Cytotoxicity against mouse L1210 cells assessed as growth inhibition. The class given is functional.
The subject of series [3] is L1210. The series can be described thus: Antitumor activity against mouse L1210 cells allografted in DBA/2 HaDD mouse assessed as survival at 75 mg/kg, ip bid administered for 2 days (reference value: 8.7 days). The class given is functional. The conditions noted are these: route intraperitoneal.
The nature of series [4]: Stability of the compound in presence of CR/dCR deaminase. The class given is ADME.
For series [5], the system named is L1210. The series can be described thus: Antitumor activity against mouse L1210 cells allografted in DBA/2 HaDD mouse assessed as survival at 40 mg/kg, ip bid administered for 2 days (reference value: 8.7 days). The class given is functional. The conditions noted are these: route intraperitoneal.
Series [6] relates to MOLT-4. Nature of the series: Cytotoxicity against human MOLT4F cells assessed as growth inhibition. The class given is functional.

Consider `Nc1ccn([C@@H]2O[C@H](CO)[C@@H](O)[C@@H]2N)c(=O)n1`, for which the GI50 in series [1] was 30 µM; in series [2] it was 4 µM. The Survival in series [3] was greater than 120 days. Moreover, the Stability result in series [4] is given as “Stable”.
In the case of `[N-]=[N+]=N[C@H]1[C@H](O)[C@@H](CO)O[C@H]1n1ccc(N)nc1=O` [CYTARAZID], the Survival in series [5] is greater than 120 days. Besides, the GI50 in series [1] was found to be 0.2 µM; in series [6], 0.07 µM; in series [2], 0.6 µM. The Stability result in series [4] is “Stable”.

For the origin of these results see ChEMBL document CHEMBL3244160, “Novel arabinofuranosyl derivatives of cytosine resistant to enzymatic deamination and possessing potent antitumor activity” (J Med Chem, 1978).
